Measured values as given in patent publication US12384770B2, “Heterocyclic compound” (Takeda Pharmaceutical Company Limited, priority 2019, dated 2025).
Entries after “also recorded” stand apart in the source; their conditions may differ.

Key:
[1] = test system: tauopathy mouse model; conditions: cited from earlier work
[2] = biological target: T1, HDAC6 enzyme (Homo sapiens, UniProt Q9UBN7); assay: HDAC6 enzyme inhibitory assay (HDAC-Glo I/II Assay kit); type: biochemical; conditions: wells without enzyme = 100% inhibition, read-out: HDAC6 inhibitory rate (%) (10 μM)
T1 construct: HDAC6 enzyme prepared by transducing full length HDAC6 gene into Sf-9 insect cells; GST; purchased SignalChem; host or cells: Sf-9 insect cells
T1 sequence (Q9UBN7 1-1215): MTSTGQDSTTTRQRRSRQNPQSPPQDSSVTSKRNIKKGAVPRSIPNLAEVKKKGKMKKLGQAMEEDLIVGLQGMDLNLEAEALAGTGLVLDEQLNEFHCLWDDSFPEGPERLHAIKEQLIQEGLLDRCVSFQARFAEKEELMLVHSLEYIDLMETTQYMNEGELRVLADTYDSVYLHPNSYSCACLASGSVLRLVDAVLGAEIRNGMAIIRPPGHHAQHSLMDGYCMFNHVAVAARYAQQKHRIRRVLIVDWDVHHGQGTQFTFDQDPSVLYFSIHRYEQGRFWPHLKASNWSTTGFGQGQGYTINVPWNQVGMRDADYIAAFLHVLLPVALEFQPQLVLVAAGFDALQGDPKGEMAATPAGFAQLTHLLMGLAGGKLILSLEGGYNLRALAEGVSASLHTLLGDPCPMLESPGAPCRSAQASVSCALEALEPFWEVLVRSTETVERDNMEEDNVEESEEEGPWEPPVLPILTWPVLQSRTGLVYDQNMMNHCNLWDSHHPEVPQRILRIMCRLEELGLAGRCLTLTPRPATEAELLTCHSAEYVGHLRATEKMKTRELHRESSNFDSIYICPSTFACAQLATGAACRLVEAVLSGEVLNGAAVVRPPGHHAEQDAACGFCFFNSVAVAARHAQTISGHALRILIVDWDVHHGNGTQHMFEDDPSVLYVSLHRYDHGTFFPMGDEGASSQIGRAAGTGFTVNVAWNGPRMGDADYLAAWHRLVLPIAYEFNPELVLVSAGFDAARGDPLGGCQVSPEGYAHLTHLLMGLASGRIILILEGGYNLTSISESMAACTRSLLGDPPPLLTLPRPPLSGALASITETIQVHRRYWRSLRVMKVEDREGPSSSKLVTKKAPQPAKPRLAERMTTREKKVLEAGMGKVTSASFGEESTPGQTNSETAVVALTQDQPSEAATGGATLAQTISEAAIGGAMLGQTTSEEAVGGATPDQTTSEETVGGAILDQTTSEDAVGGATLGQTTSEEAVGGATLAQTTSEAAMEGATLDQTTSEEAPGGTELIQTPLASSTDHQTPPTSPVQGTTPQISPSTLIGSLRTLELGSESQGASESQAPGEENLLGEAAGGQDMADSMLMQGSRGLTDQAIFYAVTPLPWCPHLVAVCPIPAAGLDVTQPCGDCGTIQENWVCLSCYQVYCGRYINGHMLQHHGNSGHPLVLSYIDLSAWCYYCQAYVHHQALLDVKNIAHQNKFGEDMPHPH
Method in brief: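 Full-length GST-purified HDAC6 from Sf-9 cells preincubated with compound 60 min at room temperature in Tris-HCl pH 7.5 buffer with MgCl2, KCl, NaCl, glutathione, Tween-20. Substrate-developer reaction 20 min, luminescence read; no-enzyme wells set as 100% inhibition.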

[3] = test system: acetylated tubulin in mouse brain; assay: Increase in acetylated tubulin in brain (hippocampus, ELISA); type: in vivo; conditions: male C57BL/6J mouse, oral, 4 h after administration
Excerpt: A drug was suspended in 0.5% methyl cellulose to prepare a suspension for administration, having a concentration shown in Table 3. The suspension was orally administered into 8 to 10-week old male C57BL/6J mouse, and after the passage of the time shown in Table 3, the brain was taken out, and hippocampus was obtained. The hippocampus was homogenized under RIPA extract (FUJIFILM Wako Pure Chemical Corporation) to which protease inhibitor (Thermo Fisher Scientific) and phosphatase inhibitor (Thermo Fisher Scientific) were added, and centrifuged in 15,000 g for 15 min to prepare a protein extract. The acetylated tubulin and total tubulin in the extract were detected by the following ELISA method. Tubulin antibody (Sigma) was immobilized on 96-well plate (Microlite2+, Thermo Fisher Scientific), and the plate was stored at 4° C. Next day, the plate was washed four times with PBS-T, and blocking buffer (1% BSA/PBS-T) was added thereto, and the reaction was carried out at 37° C. for 2 hr. The plate was washed four times with PBS-T, and the above-mentioned protein extract was added thereto to capture the tubulin on the antibody. The plate was stored at 37° C. for 2 hr, and washed four times with PBS-T. Anti-acetylated tubulin antibody or total tubulin antibody (Cell Signaling Technology), each diluted with blocking buffer, was added thereto, and the reaction was carried out at 37° C. for 1 hr. […] The plate was washed, HRP substrate was added thereto, and the luminescence was measured using a plate reader. The acetylated tubulin and total tubulin were quantified from logistics curve based on dilution series using the mouse hippocampus tissue extract, and the amount of the acetylated tubulin relative to the total tubulin was calculated, and evaluated as an relative tubulin acetylation level. […] After F test for vehicle group and drug group, the significant difference between the two groups was analyzed by Student t-test or Welch test (indicated as *p<0.05, **p<0.01, n.s.: not significant). […]

[4] = test system: P301S mutant human tau (4R1N) Tg mouse; assay: Cognitive improvement action in neurodegenerative disease model mouse (novel object recognition test); type: in vivo; conditions: once a day for three months
Protocol: A drug was suspended in 0.5% methyl cellulose to prepare a suspension for administration. The suspension was repeatedly administered into six month-old male P301S mutant human tau (4R1N) Tg mouse once a day for three months, and novel object recognition test was performed by the following method. The test is comprised of memory acquisition trial of object on the first day, and memory retention trial of familiar object and novel object on the second day. Drug was administered into the mouse 1 hr before the trials on both days. For acquisition trial, The mouse was put in a test box (30 cm×30 cm×25 cm) in which two identical objects were placed, and contact frequency and contact duration with the objects for 5 min were measured under 50 lux. Herein, the contact means a behavior getting a sniff of an object (Sniffing). Next day, one of the objects was replaced with new object, and contact frequency and contact duration with each object for 5 min were measured. Novelty discrimination index (NDI) as an index of cognitive function was calculated by novel object […]/(novel object contact duration+familiar object contact duration) %. […] After F test for vehicle administration wild-type group and vehicle administration Tg group, the significant difference between the two groups was analyzed by Student t-test or Welch test (indicated as **p<0.01). […]

Structure (SMILES)	acetylation of tubulin [1]	therapeutic effectiveness [1]	inhibition at 10 µM [2] [%]	relative tubulin acetylation level (acetylated tubulin relative to total tubulin) [3]	cognitive improvement action (novelty discrimination, relative exploration time) [4]
CN1CCc2c(c3ccccc3n2Cc2ccc(C(=O)NO)cc2)C1 [Tubastatin A]	increases acetylation of tubulin	shows therapeutic effectiveness			
O=C1c2cc(-c3nnc(C(F)F)o3)ccc2CN1[C@H](c1ccccn1)[C@@H](O)c1ccc(F)cn1 [Example 3, 6-[5-(difluoromethyl)-1,3,4-oxadiazol-2-yl]-2-[(1R,2R)-2-(5-fluoropyridin-2-yl)-2-hydroxy-1-(pyridin-2-yl)ethyl]-2,3-dihydro-1H-isoindol-1-one]			101	increase in significant tubulin acetylation level; also recorded: increase in acetylated tubulin	cognitive improvement action
O=C1c2cc(-c3nnc(C(F)F)o3)ccc2CN1[C@H](c1ccccn1)[C@@H](O)c1ccccn1 [Example 1, 6-[5-(difluoromethyl)-1,3,4-oxadiazol-2-yl]-2-[(1R,2R)-2-hydroxy-1,2-di(pyridin-2-yl)ethyl]-2,3-dihydro-1H-isoindol-1-one]			101	increase in significant tubulin acetylation level; also recorded: increase in acetylated tubulin	cognitive improvement action
